Values of other authors in patent publication US20080069871A1, “H[…] DETERRENT DELIVERY SYSTEM” (priority 2006, published 2008).

Conditions: stated as reason for use as model drug

Cc1ncc([N+](=O)[O-])n1CCO [metronidazole, Metronidazole]
solubility in water and aqueous ethanol solutions: highly soluble
